From patent publication US8691801B2, “Use of manzamine compounds in anti-cancer therapeutic regimens” (Florida Atlantic University Board of Trustees, priority 2006, dated 2014)
Read-outs that look alike come from different tables or passages of the source.

Experiments:
AsPC-1 cells [1] = format: cell-based
Source text: In Vitro Cell Invasion Assay. The invasiveness of AsPC-1 cells alone, treated with our test compounds or treated with U0126 as a positive control will be evaluated in 24-well transwell chambers, as described by Fu et al. “Effects of raf kinase inhibitor protein expression on suppression of prostate cancer metastasis”. […] Briefly, the upper and lower culture compartments of each well are separated by polycarbonate membranes (8-μm pore size). To determine baseline migration, 2.5×10^4 cells in 0.5 mL of complete medium containing 5% FBS are placed into the upper compartment of uncoated wells (BD Discovery Labware, San Diego, Calif.), and 0.75 mL of complete medium containing 10% FBS are placed into the lower compartment. In parallel, to assess the ability of the same cells to penetrate a collagen matrix, the experiment is repeated using upper compartments coated with 100 μg/cm^2 of collagen matrix (BD Discovery Labware, San Diego, Calif.). The transwell chambers are incubated for 24 hours at 37 ° C. in 95% air and 5% CO2. Cell penetration through the membrane is detected by staining the cells on the porous membrane with a Diff-Quik stain kit' observing under the microscopic and capturing images with a digital camera.

AsPC-1 cells [2] = test system: AsPC-1 cells
Experimental: (§1) TRAIL induced apoptosis. 12,000 AsPC-1 cells were plated on a 96-well tissue culture plate at a volume of 200 μl/well, allowing for twelve replicate wells per treatment. Cells were allowed to adhere for 24 hours. At the end of this incubation, 100 μl of medium were removed from each test well and 100 μl of medium containing treatment were added. Treatment consisted of media alone, media with methanol, 10 μM Manzamine A or 20 μg/m1 U0126. The cells were then incubated for 48 hours at 37° C. and 5% CO2. After this incubation, half of the wells of each treatment were incubated with 100 ng/ml Super Killer TRAIL (Alexis, San Diego, Calif.) for 18 hours at 37° C. and 5% CO2. At the end of this incubation, 75 μl of a 5 mg/ml MTT solution were added to each well. The cells were then incubated for 3 hours at 37° C. The plates were centrifuged for 10 minutes at 800 rpm. The supernatant was removed and 200 μl acidified isopropyl alcohol (1:500 solution of hydrochloric acid to isopropanol) were added to each well. The plates were shaken for 15 minutes. The absorbencies of these solutions were measured at 570 nm with a plate reader (NOVOstar, BMG Labtech Inc., Durham, N.C.). The resulting absorbencies were plotted using Microsoft Excel. […]

AsPC-1 cells [3] = test: Morphological changes (cell dissociation) induced in AsPC-1 cells; format: cell-based
Experimental: Cell Culture Conditions for the AsPC-1 pancreatic adenocarcinoma cell line. AsPC-1, a pancreatic adenocarcinoma cell line, was obtained from ATCC, grown, aliquotted and frozen stocks were maintained in liquid nitrogen. Aliquots of the stock cells were thawed and grown in RPMI-1640 supplemented with 10% Fetal Bovine Serum, 0.11 mg/ml Sodium Pyruvate, 4.5 g/L D-glucose, 18 mM HEPES Buffer, 100 U/ml penicillin G sodium, 100 μg/ml streptomycin sulfate, 0.25 μg/ml amphotericin B, 2 mM L-glutamine and 50 μg/ml gentamicin (Complete RPMI). Cells were maintained in a humidified incubator at 37° C. and 5% CO2.
An observation was made that inhibiting the constitutive activation of MEK abrogates cell dissociation (Tan, X. et al., 2004 “Involvement of the mitogen-activated protein kinase kinase 2 in the induction of cell dissociation in pancreatic cancer” Int J Oncol 24(1):65-73), a precursor step in metastasis.

AsPC-1 cells [4] = test: Cell viability assay (MTT); format: cell-based; conditions: pancreatic cancer cells
Experimental: Cell viability assays. A 3-[4,5-Dimethyl-2-thiazolyl]-2,5-diphenyl-2H-tetrazolium bromide (MTT) based assay was used to determine cell viability. […] Cells were allowed to adhere for 24 hours. […] Treatment consisted of 5 μM or 50 μM of Manzamine A, media alone, media with methanol, or 20 μg/ml U0126. […] After this incubation, 75 μl 5 mg/ml MTT were added to each well. […] The plates were shaken for 15 minutes. […] The resulting absorbencies were plotted using Microsoft Excel.

AsPC-1 cells [5] = test: TRAIL induced apoptosis (MTT readout); conditions: 10 μM manzamine A, 48 hours, without TRAIL
Experimental: as §1

Compound | prevention of cell migration (AsPC-1 cells [1]) | cytotoxicity of treatment alone (AsPC-1 cells [2]) | abrogation of cell dissociation (AsPC-1 cells [3]; AsPC-1 cells treated 48 hours with 1.25, 2.5, 5, 10 μM Manzamine A, microscopy) | abrogation of cell dissociation, dose dependence (AsPC-1 cells [3]; AsPC-1 cells, 48 hours, 5 and 10 μM dose compared with 1.25 and 2.5 μM) | dose needed for similar effects relative to U0126 (AsPC-1 cells [3]; effects on cell dissociation, migration and TRAIL resistance, manzamine A vs U0126) | prevention of cell migration (AsPC-1 cells [1]; AsPC-1 cells treated 48 hours, 5 and 10 μM Manzamine A, transwell, collagen matrix) | cytotoxicity at small doses (AsPC-1 cells [4]) | cytotoxicity of treatment alone (AsPC-1 cells [5])
N#CC(=C(/N)Sc1ccccc1N)/C(C#N)=C(\N)Sc1ccccc1N [U0126, reference compound] | prevented cell migration | induced some cytotoxicity |  |  |  |  |  | 
O[C@]12C=C(c3nccc4c3[nH]c3ccccc34)[C@@H]3CCN(CCCC/C=C\CC1)C[C@@]31CC3/C=C\CCCCN3[C@H]12 (some centres unmarked) [Manzamine A, manzamine A] |  |  | caused abrogation of cell dissociation similar to that caused by pMEK inhibitors | stronger at the 5 and 10 μM dose | a fifth of the dose needed for U0126 | prevented cell migration similar to that caused by the pMEK inhibitor U0126 | little cytotoxicity | induced some cytotoxicity
